Source: patent US8697127B2, “Method for preparing microspheres and microspheres produced thereby” (Ewha University-Industry Collaboration Foundation, priority 2008, dated 2014)

Columns and labels:
[1] = Encapsulation ratio of docetaxel, piroxicam, rivastigmine or tolterodine in PLGA microparticles (HPLC); assay type: physicochemical; details: 0.25 g of 7E, 5 mL of 7 M NaOH
Procedure: Then, 0.25 g of 7E was dissolved to prepare a dispersed phase. The solution was added to 40 mL of 0.5% PVA aqueous solution and stirred. After adding 5 mL of 7 M NaOH to the resultant o/w emulsion, followed by reaction for 30 minutes, 40 mL of distilled water was further added and, after stirring, microparticles were recovered by filtration. The microparticles were redispersed in 16 mL of 0.5% PVA aqueous solution. After adding distilled water to make 80 mL, the solution was stirred. […] After diluting 6 times with ethanol, the solution was filtered to remove the PLGA precipitate.

[2] = Progesterone encapsulation ratio of PLGA microparticles (HPLC); assay type: physicochemical
Procedure: 0.25 g of 7E or 4A was dissolved in 4 mL of ethyl acetate. […] After stirring and filtration, microparticles were recovered. The microparticles were redispersed in 16 mL of 0.5% PVA solution and stirred, after adding distilled water to make 80 mL. […] Similarly, microparticles encapsulating progesterone were prepared using ethyl formate instead of ethyl acetate and using 6 mL of 10 M NaOH or 5 mL of 10 M HCl as a decomposition reagent. Some of the microparticles prepared in Example <7-1> were accurately weighed and dissolved in 4 mL of tetrahydrofuran. After diluting 6 times with methanol, the solution was filtered to remove the PLGA precipitate. Some of the filtrate (20 μl) was subjected to HPLC (Shimadzu LC-20AD, Luna 5 m C18(2) column) for measurement of progesterone concentration. Theoretical drug load (%) and actual drug load (%) were calculated from the following equations, and their ratio was defined as drug encapsulation ratio (%). Theoretical drug load (%)=(Weight of drug used (mg)/[Weight of PLGA used (mg)+Weight of drug used (mg)])×100 Actual drug load (%)=(Weight of drug encapsulated in microparticles (mg)/Weight of microparticles used for encapsulation ratio measurement (mg))×100 Drug encapsulation ratio (%)=(Actual drug load (%)/Theoretical drug load (%))×100 0.25 g of 7E was dissolved in 4 mL of isopropyl formate or propyl formate. […] After stirring and filtration, microparticles were recovered. The microparticles were redispersed in 16 mL of 0.5% PVA solution and stirred, after adding distilled water to make 80 mL. After filtration, the microparticles were in a vacuum dryer.

[3] = Thermogravimetric analysis of microparticles; assay type: physicochemical; details: up to 150° C.; isopropyl formate, 0.25 g of 7E and 250 mg of progesterone; 10° C./min, nitrogen
Procedure: The microparticles prepared in Example <7-3> (using isopropyl formate, 0.25 g of 7E and 250 mg of progesterone) and microparticles not including progesterone were analyzed using a thermogravimetric analyzer (TGA 2050). Nitrogen was used as a purge gas. Change in weight of the microparticles was automatically recorded while increasing temperature at a rate of 10° C./min.

[4] = Aripiprazole encapsulation ratio of PLGA microparticles (HPLC); assay type: physicochemical; details: PLGA 4A/0.25 g; 60 mg of aripiprazole; Ethyl formate; 5 mL of 8 M NaOH
Procedure: (§1) 0.25 g of 4A was dissolved in 4 mL of ethyl formate. Then, 60 mg of aripiprazole was dissolved to prepare a dispersed phase. The solution was added to 40 mL of 0.5% PVA aqueous solution and stirred. After adding 5 mL of 8 M NaOH to the resultant o/w emulsion, followed by reaction for 30 minutes, 40 mL of distilled water was further added and, after stirring, microparticles were recovered by filtration. The microparticles were redispersed in 16 mL of 0.5% PVA aqueous solution. After adding distilled water to make 80 mL, the solution was stirred. After filtration, the microparticles were dried overnight in a vacuum dryer.
(§2) Some of the microparticles including aripiprazole were accurately weighed and dissolved in 4 mL of tetrahydrofuran. After diluting 6 times with ethanol, the solution was filtered to remove the PLGA precipitate. Some of the filtrate (20 μl) was subjected to HPLC (Shimadzu LC-20AD) for measurement of aripiprazole concentration. Drug encapsulation ratio (%) was calculated using the equations given in Example <7-2>.

[5] = Anastrazole encapsulation ratio of PLGA microparticles (HPLC); assay type: physicochemical; details: 60 mg of anastrazole
Procedure: Each of 7E, 4A and 2A polymers was dissolved in 4 mL of ethyl acetate. Then, 60 mg of anastrazole was dissolved to prepare a dispersed phase. The solution was added to 40 mL of 0.5% PVA aqueous solution and stirred. 5 mL of 10 M NaOH was added to the resultant o/w emulsion. After adding 40 mL of distilled water and stirring, microparticles were recovered by filtration. The microparticles were redispersed in 16 mL of 0.5% PVA aqueous solution. After adding distilled water to make 80 mL, the solution was stirred. After filtration, the microparticles were dried overnight in a vacuum dryer.
Similarly, microparticles encapsulating progesterone were prepared using ethyl formate instead of ethyl acetate and using 6 mL of 10 M NaOH.
as §2, with “prepared in Example <8-1>” for “including aripiprazole”, “50% acetonitrile,” for “ethanol,”, “filtered using a 0.45 μm syringe filter” for “filtered”, “LC-20AD, Luna 5 m C18(2) column)” for “LC-20AD)”, “anastrazole” for “aripiprazole”

[6] = HPLC chromatogram analysis of anastrazole for decomposition or modification products; assay type: physicochemical; details: ethyl acetate/PLGA (75:25)/NaOH; encapsulated in the microparticles and then recovered; HPLC chromatograms
Procedure: In order to indirectly estimate whether decomposition or modification products of anastrazole are produced during the preparation of microparticles using ethyl acetate/PLGA (75:25)/NaOH as in Example <8-1>, various samples were prepared (as in Example <8-1>) and their chromatograms were analyzed.

[7] = Anastrazole encapsulation ratio of PLGA microparticles (HPLC); assay type: physicochemical; details: PLGA 7E/0.15 g + 4A 0.1 g; 60 mg of anastrazole; Ethyl formate; 6 mL of 10 M NaOH
[8] = background statement on organic solvents; cited from earlier work
[9] = Risperidone encapsulation ratio of PLGA microparticles (HPLC); assay type: physicochemical; details: PLGA 4A/0.25 g; 60 mg of risperidone; Ethyl formate; 5 mL of 8 M NaOH
Procedure: as §1, with “risperidone” for “aripiprazole”
as §2, with “risperidone” for “aripiprazole”

[10] = 40 μl of rivastigmine, Ethyl acetate (table)
[11] = PLGA 4A/0.25 g, progesterone 60 mg, 10M NaOH 5 mL, ethyl acetate
[12] = PLGA 4A/0.25 g, progesterone 60 mg, 10M NaOH 6 mL, ethyl formate
[13] = PLGA 4A/0.25 g, progesterone 250 mg, 10M NaOH 5 mL, ethyl acetate
[14] = PLGA 4A/0.25 g, progesterone 250 mg, 10M NaOH 6 mL, ethyl formate
[15] = PLGA 7E/0.25 g, progesterone 60 mg, 10M HCl 5 mL, ethyl formate
[16] = PLGA 7E/0.25 g, progesterone 60 mg, 10M NaOH 5 mL, ethyl acetate
[17] = PLGA 7E/0.25 g, progesterone 60 mg, 10M NaOH 6 mL, ethyl formate
[18] = PLGA 7E/0.25 g, progesterone 100 mg, 10M HCl 5 mL, ethyl formate
[19] = PLGA 7E/0.25 g, progesterone 160 mg, 10M HCl 5 mL, ethyl formate
[20] = PLGA 7E/0.25 g, progesterone 200 mg, 10M HCl 5 mL, ethyl formate
[21] = PLGA 7E/0.25 g, progesterone 250 mg, 10M HCl 5 mL, ethyl formate
[22] = PLGA 7E/0.25 g, progesterone 250 mg, 10M NaOH 5 mL, ethyl acetate
[23] = PLGA 7E/0.25 g, progesterone 250 mg, 10M NaOH 6 mL, ethyl formate
[24] = PLGA 2A/0.25 g, Ethyl acetate, 5 mL of 10 M NaOH
[25] = PLGA 4A/0.25 g, Ethyl acetate, 5 mL of 10 M NaOH
[26] = PLGA 7E/0.15 g + 4A 0.1 g, Ethyl formate, 6 mL of 10 M NaOH
[27] = PLGA 7E/0.15 g + 4A/0.1 g, Ethyl acetate, 5 mL of 10 M NaOH
[28] = 50 mg of docetaxel, Ethyl acetate
[29] = 40 mg of tolterodine, Ethyl formate
[30] = 50 mg of piroxicam, Ethyl formate

CCN(C)C(=O)Oc1cccc([C@H](C)N(C)C)c1 [rivastigmine]
Encapsulation ratio (%) Batch 1 [1, 10]: 74.2% | Encapsulation ratio (%) Batch 2 [1, 10]: 79.2% | Encapsulation ratio (%) Batch 3 [1, 10]: 78.1%

CC(=O)[C@H]1CC[C@H]2[C@@H]3CCC4=CC(=O)CC[C@]4(C)[C@H]3CC[C@]12C [progesterone]
Encapsulation ratio (%) Batch 1 [2, 11]: 90.5% | Encapsulation ratio (%) Batch 2 [2, 11]: 92.8% | Encapsulation ratio (%) Batch 3 [2, 11]: 95.3% | Encapsulation ratio (%) Batch 1 [2, 12]: 92.0% | Encapsulation ratio (%) Batch 2 [2, 12]: 93.3% | Encapsulation ratio (%) Batch 3 [2, 12]: 95.6% | Encapsulation ratio (%) Batch 1 [2, 13]: 93.2% | Encapsulation ratio (%) Batch 2 [2, 13]: 92.2% | Encapsulation ratio (%) Batch 3 [2, 13]: 98.5% | Encapsulation ratio (%) Batch 1 [2, 14]: 96.2% | Encapsulation ratio (%) Batch 2 [2, 14]: 93.2% | Encapsulation ratio (%) Batch 3 [2, 14]: 100.7% | Encapsulation ratio (%) Batch 1 [2, 15]: 84.1% | Encapsulation ratio (%) Batch 2 [2, 15]: 88.7% | Encapsulation ratio (%) Batch 3 [2, 15]: 86.1% | Encapsulation ratio (%) Batch 1 [2, 16]: 93.8% | Encapsulation ratio (%) Batch 2 [2, 16]: 92.3% | Encapsulation ratio (%) Batch 3 [2, 16]: 96.0% | Encapsulation ratio (%) Batch 1 [2, 17]: 93.9% | Encapsulation ratio (%) Batch 2 [2, 17]: 94.0% | Encapsulation ratio (%) Batch 3 [2, 17]: 91.6% | Encapsulation ratio (%) Batch 1 [2, 18]: 89.0% | Encapsulation ratio (%) Batch 2 [2, 18]: 92.8% | Encapsulation ratio (%) Batch 3 [2, 18]: 91.5% | Encapsulation ratio (%) Batch 1 [2, 19]: 98.9% | Encapsulation ratio (%) Batch 2 [2, 19]: 102.0% | Encapsulation ratio (%) Batch 3 [2, 19]: 96.9% | Encapsulation ratio (%) Batch 1 [2, 20]: 99.2% | Encapsulation ratio (%) Batch 2 [2, 20]: 102.0% | Encapsulation ratio (%) Batch 3 [2, 20]: 95.5% | Encapsulation ratio (%) Batch 1 [2, 21]: 101.0% | Encapsulation ratio (%) Batch 2 [2, 21]: 101.0% | Encapsulation ratio (%) Batch 3 [2, 21]: 99.6% | Encapsulation ratio (%) Batch 1 [2, 22]: 92.8% | Encapsulation ratio (%) Batch 2 [2, 22]: 92.0% | Encapsulation ratio (%) Batch 3 [2, 22]: 97.7% | Encapsulation ratio (%) Batch 1 [2, 23]: 95.5% | Encapsulation ratio (%) Batch 2 [2, 23]: 98.5% | Encapsulation ratio (%) Batch 3 [2, 23]: 99.7% | weight loss of the microparticles [3]: 0.75%

O=C1CCc2ccc(OCCCCN3CCN(c4cccc(Cl)c4Cl)CC3)cc2N1 [aripiprazole]
Average encapsulation ratio of 3 batches [4]: 72.3±2.0% | Encapsulation ratio (%) Batch 1 [4]: 72.2% | Encapsulation ratio (%) Batch 2 [4]: 74.3% | Encapsulation ratio (%) Batch 3 [4]: 70.3%

CC(C)(C#N)c1cc(Cn2cncn2)cc(C(C)(C)C#N)c1 [anastrazole]
Encapsulation ratio (%) Batch 1 [5, 24]: 78.5% | Encapsulation ratio (%) Batch 2 [5, 24]: 75.2% | Encapsulation ratio (%) Batch 3 [5, 24]: 73.7% | Encapsulation ratio (%) Batch 1 [5, 25]: 78.1% | Encapsulation ratio (%) Batch 2 [5, 25]: 74.9% | Encapsulation ratio (%) Batch 3 [5, 25]: 77.6% | Encapsulation ratio (%) Batch 1 [5, 26]: 60.8% | Encapsulation ratio (%) Batch 2 [5, 26]: 65.1% | Encapsulation ratio (%) Batch 1 [5, 27]: 75.3% | Encapsulation ratio (%) Batch 2 [5, 27]: 73.8% | Encapsulation ratio (%) Batch 3 [5, 27]: 74.7% | decomposition or modification products of anastrazole during the preparation of microparticles [6]: no decomposition or modification products of anastrazole are produced | Encapsulation ratio (%) Batch 3 [7]: 65.5%

CCOC(C)=O [ethyl acetate]
water solubility [8]: 8.7 % by weight

CC(=O)O[C@@]12CO[C@@H]1C[C@H](O)[C@@]1(C)C(=O)[C@H](O)C3=C(C)[C@@H](OC(=O)[C@H](O)[C@@H](NC(=O)OC(C)(C)C)c4ccccc4)C[C@@](O)([C@@H](OC(=O)c4ccccc4)[C@H]21)C3(C)C [docetaxel]
Encapsulation ratio (%) Batch 1 [1, 28]: 83.2% | Encapsulation ratio (%) Batch 2 [1, 28]: 80.2% | Encapsulation ratio (%) Batch 3 [1, 28]: 84.2%

ClCCl [methylene chloride]
water solubility [8]: 1.32 % by weight

Cc1ccc(O)c([C@H](CCN(C(C)C)C(C)C)c2ccccc2)c1 [tolterodine]
Encapsulation ratio (%) Batch 1 [1, 29]: 70.3% | Encapsulation ratio (%) Batch 2 [1, 29]: 77.3% | Encapsulation ratio (%) Batch 3 [1, 29]: 73.2%

Cc1nc2n(c(=O)c1CCN1CCC(c3noc4cc(F)ccc34)CC1)CCCC2 [risperidone]
Average encapsulation ratio of 3 batches [9]: 75.0±1.4% | Encapsulation ratio (%) Batch 1 [9]: 75.2% | Encapsulation ratio (%) Batch 2 [9]: 73.6% | Encapsulation ratio (%) Batch 3 [9]: 76.3%

CN1C(C(=O)Nc2ccccn2)=C(O)c2ccccc2S1(=O)=O [piroxicam]
Encapsulation ratio (%) Batch 1 [1, 30]: 76.2% | Encapsulation ratio (%) Batch 2 [1, 30]: 81.2% | Encapsulation ratio (%) Batch 3 [1, 30]: 79.2%
